In US20220111034A1, “VIRUS COMPOSITIONS” (priority 2019, published 2022):

Key:
[1] = system: JAM-A on Lec2-JAM-A cells; assay: FD-based AFM with virus-functionalized tip on living Lec2-JAM-A cells, with glycan addition; type: cell-based, human; conditions: for T3SA+ adhesion events in the high force range (400 to 500 pN) / T3SA+ binding frequency after glycan injection / T3SA+ binding frequency before glycan injection: Lec2-JAM-A cells; for T3SA+ adhesion events in the high force range (400 to 500 pN): FIG. 8; for T3SA+ binding frequency after glycan injection / T3SA+ binding frequency before glycan injection: FIG. 9; for T3SA+ binding frequency before glycan injection: baseline of the same experiment
Protocol: Engineering and characterization of cell lines expressing JAM-A. Monolayers of CHO (ATCC, #CCL-61) and Lec2 (ATCC, #CRL-1736) cells were transduced with lentiviruses encoding a puromycin resistance gene and human JAM-A or a puromycin resistance gene alone. Transduced cells were selected for puromycin resistance by passaging twice in medium containing 20 μg ml^−1 puromycin. The concentration of puromycin used was the minimal concentration that yielded complete death of non-transduced CHO and Lec2 cells. Following selection for puromycin resistance, cells were further selected for cell surface expression of JAM-A using fluorescence-activated cell sorting (FACS). Cell-surface expression of JAM-A was detected using the monoclonal antibody, J10.4 (Liu et al. Human junction adhesion molecule regulates tight junction resealing in epithelia. J. Cell Sci. 2000, vol. 113, 2363-2374), and a fraction of cells with high JAM-A expression was collected and propagated using puromycin selection. In the ensuing Examples, cells transduced and selected for puromycin resistance alone will be referred to as CHO and Lec2 and those selected for puromycin resistance and JAM-A expression will be referred to as CHO-JAM-A and Lec2-JAM-A, respectively.
Correlative images were acquired on an AFM (Bioscope Catalyst and Bioscope Resolve, Bruker) operated in the PeakForce QNM mode (Nanoscope software v9.2) to conduct FD-based AFM and coupled to an inverted epifluorescence microscope (Zeiss Observer Z.1) as described (Newton et al. 2017, supra; Knoops et al. Specific Interactions Measured by AFM on Living Cells between Peroxiredoxin-5 and TLR4: Relevance for Mechanisms of Innate Immunity. Cell chemical biology 2018, vol. 25, 550-559, e553). A 40× oil objective (NA=0.95) was used. The AFM was equipped with a 150 μm piezoelectric scanner and a cell culture chamber allowing to control the temperature, the humidity and the CO2 concentration as described (Alsteens et al. 2017, supra). Overview images of cell surfaces (20-30 μm^2) were recorded at imaging forces of ˜500 pN using PFQNM-LC probes (Bruker) having tip lengths of 17 μm, tip radii of 65 nm, and opening angles of 15°. All fluorescence microscopy and FD-based AFM imaging experiments were conducted under cell culture conditions using the combined AFM and fluorescence microscopy chamber (FIG. 1a) at 37° C. in either Mem a, nucleosides or Ham's F12 culture medium, depending on the cell type. A gas mixture of synthetic air with 5% CO2 at 95% relative humidity using a gas humidifier membrane (PermSelect silicone) was infused at 0.1 L min^−1 into the microscopy chamber. The humidity was controlled using a humidity sensor (Sensirion). Cantilevers were first calibrated using the thermal noise method (Huffer & Bechhoefer. Calibration of atomic-force microscope tips. Review of Scientific Instruments 1993, vol. 64, 1868-1873), yielding values ranging from 0.095 to 0.135 N m^−1 for PFQNM-LC probes. The AFM tip was oscillated in a sinusoidal fashion at 0.25 kHz with a 750 nm amplitude in the PeakForce Tapping mode. The sample was scanned using a frequency of 0.125 Hz and 256 pixels per line (256 lines). AFM images and FD curves were analyzed using the Nanoscope analysis software (v1.7, Bruker), Origin, and ImageJ (v1.52e). Individual FD curves detecting unbinding events between the virus and cell surface were analyzed using the Nanoscope analysis and Origin software. The baseline of the retraction curve was corrected using a linear fit on the last 30% of the retraction curve. Using the force-time curve, the loading rate (slope) of each rupture event was determined (FIG. 1c). Optical images were analyzed using Zen Blue software (Zeiss) (Alsteens et al. 2017, Newton et al. 2017, Delguste et al. 2018a, Delguste et al. 2018b, all supra).
The live cell experiments were conducted in the same manner as described above by scanning a suitable field of cells, followed by adding 1 mM of the respective glycan to the culture medium. […]

[2] = system: cocultured CHO-JAM-A and Lec2-JAM-A cells; assay: Single particle tracking by dynamic confocal microscopy; type: cell-based
Protocol: A coculture of Lec2-JAM-A mCherry and CHO-JAM-A cells was seeded onto a 47-mm glass-bottomed petri dish (WillCo Wells) 1 or 2 d before the experiment to ensure formation of a confluent monolayer on the day of the experiment. Cells were imaged by laser scanning confocal microscopy using a Zeiss LSM 880 microscope with a 561 nm laser for mCherry and a 488 nm laser for Alexa488 and a 40× oil objective (NA=0.95). All experiments were conducted at room temperature with cells maintained in Ham's F12 culture medium and a gas mixture of synthetic air with 5% CO2 at 95% relative humidity that was infused at 0.1 L min^−1 into the microscopy chamber using a gas humidifier membrane (PermSelect silicone). The humidity was controlled using a humidity sensor (Sensirion). To ensure virus binding (and not internalization), the cells were placed on ice for 30 min before starting the experiment. After finding an area in which both cell types were adjacent (guided by fluorescence), Alexa488-labelled T3SA+ or T3SA− viruses (10^12 particles/mL) diluted in either F12 Ham's culture medium or 1 mM Neu5Ac solution (on ice) were added to the living cells. The fluorescent signal from both dyes (mCherry and Alexa488) as well as the signal from the PMT channel was recorded for a ˜30 min interval immediately after virus injection at a frame-rate of one image every 13.32 seconds. During recording, the focus was kept constant on the upper surface of cells. Fluorescence images were exported as 12-bit TIFF files, merged into a movie, and further processed using ImageJ (National Institutes of Health, Bethesda). Trajectories were harvested and analyzed using MTrackJ, an ImageJ plugin to track moving viral particles in the movie and obtain track statistics. The latter were further processed using Origin.

[3] = system: Lec2, Lec2-JAM-A, CHO and CHO-JAM-A cells; assay: Infection of in vitro cultured cells by reovirus (Example 6); type: cell-based; conditions: co-administered with the virus; for effect on infectivity of T3SA+ towards Lec2-JAM-A and CHO-JAM-A: compared to T3SA+ without glycan
Protocol: T3SA+ and T3SA− reovirus stocks are prepared and purified virions obtained as set forth in Example 1. Lec2, Lec2-JAM-A, CHO and CHO-JAM-A cells are prepared and cultured as set forth in Example 1.
The cells are infected with the reovirus at a suitable multiplicity of infection (MOI) in batch suspensions or in monolayers and infectivity is analysed by an appropriate assay, such as quantification of viral protein expression in infected cells or a plaque assay.

CC(=O)N[C@H]1[C@H]([C@H](O)[C@H](O)CO)OC(O)(C(=O)O)C[C@@H]1O (stereo partly shown) [Neu5Ac, N-acetylneuraminic acid]
T3SA+ adhesion events in the high force range (400 to 500 pN) ([1]; 1 mM glycan): more adhesion events in the high force range
T3SA+ binding frequency after glycan injection ([1]; 1 mM glycan): 4.9%
T3SA+ binding frequency before glycan injection [1]: 3.9%
T3SA+ adhesion events in the high force range after neuraminidase treatment ([1]; NA-treated cells, 1 mM glycan, FIG. 17): more adhesion events in the high force range
increase in T3SA+ binding after glycan injection on neuraminidase-treated cells ([1]; neuraminidase 40 mUnit/mL for 1 h, then 1 mM glycan): ~20%
number of T3SA+ particles bound to CHO-JAM-A cells ([2]; 1 mM free SA, FIG. 10g): significantly increased
diffusion potential of T3SA+ particles on the cell surface ([2]; 1 mM glycan injected with viral particles, FIG. 10f): significant decrease of their diffusion potential
effect of free SA on diffusion and bound particles of T3SA− ([2]; 1 mM, FIG. 10g): this effect was not observed
effect on infectivity of T3SA− towards Lec2-JAM-A or CHO-JAM-A [3]: do not affect infectivity
effect on infectivity of T3SA+ towards Lec2-JAM-A and CHO-JAM-A [3]: significantly increase infectivity

CC(=O)N[C@H]1[C@H](O[C@H]2[C@@H](O)[C@@H](CO)O[C@@H](O[C@H]3[C@H](O)[C@@H](O)C(O)O[C@@H]3CO)[C@@H]2O)O[C@H](CO)[C@@H](O[C@@H]2O[C@H](CO)[C@H](O)[C@H](O)[C@H]2O)[C@@H]1O (mixture of isomers) [LNnT, lacto-N-neotetraose, reference compound]
T3SA+ adhesion events in the high force range (400 to 500 pN) ([1]; 1 mM glycan): no significant change
T3SA+ binding frequency after glycan injection ([1]; 1 mM glycan): 3.9%
T3SA+ binding frequency before glycan injection [1]: 3.8%
effect on infectivity of T3SA+ towards Lec2-JAM-A and CHO-JAM-A [3]: does not affect infectivity

sialyl-lacto-N-tetraose a [LSTa]
T3SA+ adhesion events in the high force range (400 to 500 pN) ([1]; 1 mM glycan): more adhesion events in the high force range
T3SA+ binding frequency after glycan injection ([1]; 1 mM glycan): 4.8%
T3SA+ binding frequency before glycan injection [1]: 3.8%
effect on infectivity of T3SA− towards Lec2-JAM-A or CHO-JAM-A [3]: do not affect infectivity
effect on infectivity of T3SA+ towards Lec2-JAM-A and CHO-JAM-A [3]: significantly increase infectivity
